{"source": "patent US20210109103A1", "about": "“METHODS AND KITS FOR DETECTING O-GlcNAc SITES USING B3GALNT2 AND OGT” (BIO-TECHNE CORPORATION, priority 2018, published 2021)", "key": {"[1]": {"molecular_target": "T1, recombinant human B3GALNT2 (Homo sapiens, UniProt Q8NCR0)", "T1 construct": "purchased R&D Systems and/or Bio-Techne", "T1 sequence (Q8NCR0 1-500)": "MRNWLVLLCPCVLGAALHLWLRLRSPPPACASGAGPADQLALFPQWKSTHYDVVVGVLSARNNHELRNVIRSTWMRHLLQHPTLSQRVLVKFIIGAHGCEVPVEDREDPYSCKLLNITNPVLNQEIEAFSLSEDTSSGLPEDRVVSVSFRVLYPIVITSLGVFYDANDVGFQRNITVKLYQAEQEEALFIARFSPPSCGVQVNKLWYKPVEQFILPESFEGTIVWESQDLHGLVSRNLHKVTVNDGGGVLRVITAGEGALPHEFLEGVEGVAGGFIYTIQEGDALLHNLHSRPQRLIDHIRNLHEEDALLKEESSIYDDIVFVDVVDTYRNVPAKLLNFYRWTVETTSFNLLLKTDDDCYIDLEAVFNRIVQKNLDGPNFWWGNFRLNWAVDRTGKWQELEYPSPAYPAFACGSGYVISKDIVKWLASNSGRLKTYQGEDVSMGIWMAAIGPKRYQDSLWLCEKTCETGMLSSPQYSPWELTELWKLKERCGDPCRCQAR", "assay": "phosphatase coupled universal glycosyltransferase assay, B3GALNT2", "assay_type": "biochemical", "conditions": "0.4 mM nucleotide sugar donor, 2 mM acceptor benzyl-β-GlcNAc, 1 μg B3GALNT2, 37° C., 20 minutes; compared with UDP-GalNAc (FIG. 8)", "description": "(§1) Using a phosphatase coupled universal glycosyltransferase assay, an analysis of the activity of B3GALNT2 and OGT on regular nucleotide sugar as compared to azido nucleotide sugar was performed. For the B3GALNT2 assay, 0.4 mM nucleotide sugar donor (UDP-GalNAc or UDP-GalNAz), 2 mM of acceptor substrate benzyl-β-GlcNAc, and 0.1 μg of coupling phosphatase 1 were combined with 1 μg of B3GALNT2 in 50 μL of assay buffer of 25 mM Tris at pH 7.5, 10 mM MnCl2 and 10 mM CaCl2 at 37° C. for 20 minutes. For the OGT assay, 0.4 mM nucleotide sugar donor (UDP-GlcNAc or UDP-GlcNAz), 0.2 mM of acceptor OGT substrate, and 0.1 μg of coupling phosphatase 1 were combined with 2.5 μg of OGT in 50 μL of assay buffer of 25 mM Tris at pH 7.5, 10 mM MnCl2 and 10 mM CaCl2 at 37° C. for 20 minutes. Both assays were performed according to the Universal Glycosyltransferase Assay Kit from R&D Systems®. FIG. 8 is a bar graph of the activity of B3GALNT2 and OGT on regular nucleotide sugars compared to azido nucleotide sugars."}, "[2]": {"molecular_target": "T2, recombinant human O-GlcNAc transferase (OGT) (Homo sapiens, UniProt O15294)", "T2 construct": "purchased R&D Systems and/or Bio-Techne", "T2 sequence (O15294 1-1046)": "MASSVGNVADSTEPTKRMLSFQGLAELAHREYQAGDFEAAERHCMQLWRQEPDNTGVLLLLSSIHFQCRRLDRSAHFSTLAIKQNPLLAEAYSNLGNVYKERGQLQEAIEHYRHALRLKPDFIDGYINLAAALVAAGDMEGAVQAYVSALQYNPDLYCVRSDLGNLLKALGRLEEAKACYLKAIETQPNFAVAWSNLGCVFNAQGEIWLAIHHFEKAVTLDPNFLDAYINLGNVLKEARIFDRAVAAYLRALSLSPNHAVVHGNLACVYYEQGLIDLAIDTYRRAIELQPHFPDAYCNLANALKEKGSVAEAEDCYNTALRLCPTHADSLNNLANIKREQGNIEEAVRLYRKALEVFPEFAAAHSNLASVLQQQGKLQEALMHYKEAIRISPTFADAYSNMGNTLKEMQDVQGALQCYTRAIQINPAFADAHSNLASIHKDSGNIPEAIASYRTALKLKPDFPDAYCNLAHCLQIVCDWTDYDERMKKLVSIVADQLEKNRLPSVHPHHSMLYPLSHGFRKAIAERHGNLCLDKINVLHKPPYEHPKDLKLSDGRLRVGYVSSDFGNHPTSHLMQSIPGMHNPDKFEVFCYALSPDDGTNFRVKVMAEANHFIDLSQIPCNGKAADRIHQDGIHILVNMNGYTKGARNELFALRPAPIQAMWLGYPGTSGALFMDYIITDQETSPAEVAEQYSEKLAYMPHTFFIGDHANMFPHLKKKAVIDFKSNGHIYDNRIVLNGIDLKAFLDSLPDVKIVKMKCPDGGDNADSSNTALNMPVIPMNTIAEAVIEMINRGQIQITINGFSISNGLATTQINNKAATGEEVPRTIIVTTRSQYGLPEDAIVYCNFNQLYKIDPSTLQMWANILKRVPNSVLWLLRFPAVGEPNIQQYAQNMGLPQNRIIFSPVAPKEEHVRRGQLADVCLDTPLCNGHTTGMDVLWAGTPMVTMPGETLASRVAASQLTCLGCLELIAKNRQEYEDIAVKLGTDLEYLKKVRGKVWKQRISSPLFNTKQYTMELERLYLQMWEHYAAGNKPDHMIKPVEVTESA", "assay": "phosphatase coupled universal glycosyltransferase assay, OGT", "assay_type": "biochemical", "conditions": "0.4 mM nucleotide sugar donor, 0.2 mM acceptor OGT substrate, 2.5 μg OGT, 37° C., 20 minutes (FIG. 8)", "description": "as §1"}}, "data": [{"smiles": "[N-]=[N+]=NCC(=O)N[C@H]1[C@@H](OP(=O)(O)OP(=O)(O)OC[C@H]2O[C@@H](n3ccc(=O)[nH]c3=O)[C@H](O)[C@@H]2O)O[C@H](CO)[C@H](O)[C@@H]1O", "note": "[UDP-GalNAz]", "values": [{"measurement": "activity of B3GALNT2 on azido nucleotide sugar compared to regular nucleotide sugar", "setting": "[1]", "value": "more active on UDP-GalNAz than on UDP-GalNAc"}]}, {"smiles": "CC(=O)N[C@H]1[C@@H](OP(=O)(O)OP(=O)(O)OC[C@H]2O[C@@H](n3ccc(=O)[nH]c3=O)[C@H](O)[C@@H]2O)O[C@H](CO)[C@@H](O)[C@@H]1O", "note": "[UDP-GlcNAc]", "values": [{"measurement": "activity of OGT on azido nucleotide sugar compared to regular nucleotide sugar", "setting": "[2]", "value": "equally active"}]}, {"smiles": "[N-]=[N+]=NCC(=O)N[C@H]1[C@@H](OP(=O)(O)OP(=O)(O)OC[C@H]2O[C@@H](n3ccc(=O)[nH]c3=O)[C@H](O)[C@@H]2O)O[C@H](CO)[C@@H](O)[C@@H]1O", "note": "[UDP-GlcNAz]", "values": [{"measurement": "activity of OGT on azido nucleotide sugar compared to regular nucleotide sugar", "setting": "[2]", "value": "equally active"}]}]}
